ChEMBL document CHEMBL1201862, “PubChem BioAssay data set” (2004)
Active and inactive are the calls of the source.

Assays:
Insulin-degrading enzyme [1] = target: T1, Insulin-degrading enzyme (Homo sapiens, UniProt P14735); assay: cellular IDE activation of Abeta substrate cleavage – fluorescence polarization, HEK cells, dose response (AID 588439); assay type: functional, cell-based
T1 sequence (P14735 whole entry): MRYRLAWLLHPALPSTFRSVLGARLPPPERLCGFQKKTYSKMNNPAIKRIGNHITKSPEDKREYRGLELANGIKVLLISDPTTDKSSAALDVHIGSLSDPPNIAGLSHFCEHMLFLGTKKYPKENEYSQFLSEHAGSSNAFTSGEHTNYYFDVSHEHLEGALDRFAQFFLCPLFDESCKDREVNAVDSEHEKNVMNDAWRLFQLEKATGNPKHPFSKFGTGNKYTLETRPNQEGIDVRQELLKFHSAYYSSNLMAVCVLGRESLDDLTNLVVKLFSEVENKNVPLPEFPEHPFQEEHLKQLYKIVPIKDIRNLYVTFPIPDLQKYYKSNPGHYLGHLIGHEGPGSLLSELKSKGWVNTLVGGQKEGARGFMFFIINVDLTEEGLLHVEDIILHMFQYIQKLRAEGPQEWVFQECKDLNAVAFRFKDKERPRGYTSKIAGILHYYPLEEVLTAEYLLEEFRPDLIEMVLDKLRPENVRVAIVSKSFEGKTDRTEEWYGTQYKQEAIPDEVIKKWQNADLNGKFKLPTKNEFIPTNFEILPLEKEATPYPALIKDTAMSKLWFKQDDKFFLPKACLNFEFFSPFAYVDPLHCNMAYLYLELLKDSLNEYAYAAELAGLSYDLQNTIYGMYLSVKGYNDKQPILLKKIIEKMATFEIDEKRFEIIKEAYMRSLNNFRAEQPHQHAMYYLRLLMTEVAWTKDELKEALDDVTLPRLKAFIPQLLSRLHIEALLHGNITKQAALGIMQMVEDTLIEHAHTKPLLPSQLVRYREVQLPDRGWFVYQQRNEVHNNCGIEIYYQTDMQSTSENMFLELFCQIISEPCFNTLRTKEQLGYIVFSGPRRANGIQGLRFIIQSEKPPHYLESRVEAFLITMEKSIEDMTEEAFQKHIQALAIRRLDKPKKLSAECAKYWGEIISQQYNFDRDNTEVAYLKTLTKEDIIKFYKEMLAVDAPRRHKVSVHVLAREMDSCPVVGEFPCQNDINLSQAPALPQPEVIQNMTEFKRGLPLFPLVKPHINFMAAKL

[2] = target: Photoreceptor-specific nuclear receptor (Homo sapiens, UniProt Q9Y5X4); assay type: functional;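 further: potency for compounds that break the NR2E3 corepressor complex and count as activators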
Insulin-degrading enzyme [3] = target: T1, Insulin-degrading enzyme; assay: recombinant IDE activation, cell-free – biochemical, fluorescence polarization, counter-screen for IDE activator project, dose response (AID 588681)
[4] = target: Peroxisome proliferator-activated receptor gamma/Nuclear receptor corepressor 2 (Homo sapiens, UniProt P37231+Q9Y618); assay type: functional
HEK293 [5] = assay: membrane integrity loss in HEK cells – cell-based, fluorescence, cytotoxicity control for IDE activator project, dose response (AID 588440); assay type: functional; conditions: Homo sapiens;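 further: cytotoxicity by LDH release measuring loss of membrane integrity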
[6] = target: Ras and Rab interactor 1/Tyrosine-protein kinase ABL1 (Homo sapiens, UniProt P00519+Q13671); assay type: functional;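 further: biochemical TR-FRET dose-response test measuring inhibition of binding between Rin1 and Abl proteins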
Nonstructural protein 1 = Nonstructural protein 1 (Influenza A virus, UniProt Q194T2); assay type: functional, Influenza A virus (A/California/07/2009(H1N1))
HEK293 [7] = assay: optical interference in Abeta FP readout, dose response, artefact control for IDE activator project, biochemical, fluorescence polarization (AID 588442); assay type: functional, cell-based; conditions: Homo sapiens
[8] = target: Mothers against decapentaplegic homolog 3 (Homo sapiens, UniProt P84022); assay: blockers of Smad3 complex formation in lysate – cell lysate, secondary confirmation, chemiluminescent ELISA, HEK293 lysate, dose response (AID 1058); assay type: functional
[9] = target: Serine/threonine-protein phosphatase PP1-alpha catalytic subunit (Homo sapiens, UniProt P62136); assay: inhibition of protein phosphatase 1 activity – biochemical, fluorescence, dose response (AID 2403);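 further: phosphatase turnover of OMFP into fluorescent 3-O-methylfluorescein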
INS1 = assay: INS-1E survival protection against cytokine death – cell-based, luminescence, retest, dose response (AID 449756); assay type: functional; conditions: Rattus norvegicus;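 further: cell death triggered by IL-1 beta plus TNF-alpha plus IFN-gamma mixture; protective hits raise ATP signal compared with cytokine alone wells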
[10] = decrease of insulin promoter-GFP reporter – imaging, high-content screening, mouse beta cells (AID 1628); assay type: functional; conditions: MIN6
[11] = system: Streptococcus sp. 'group A'; assay: Streptococcus pyogenes SK(-)GAS viability under kanamycin – luminescence, BacTiterGlo, confirmation, counter-screen for streptokinase expression inhibitor project, dose response (AID 1900); assay type: functional, organism-based
[12] = IC50 of Artemis nuclease activity blockers – biochemical, fluorescence intensity, dose response (AID 720701); assay type: functional;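 further: Artemis endonuclease enzyme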
[13] = MIN6 cell viability loss – mouse insulinoma, cytotoxicity control, dose response (AID 2122); assay type: functional;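 further: confirmatory high-throughput counterscreen run to flag cytotoxic compounds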
Streptococcus = assay: GAS UMAA2166 growth inhibition – luminescence, BacTiterGlo, counter-screen for streptokinase expression inhibitor project, dose response (AID 1915); assay type: functional, organism-based;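 further: potency for reduction of bacterial viability or growth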
[14] = target: Serine/threonine-protein phosphatase (Homo sapiens, UniProt Q9BPW0); assay: Counterscreen for inhibitors of PP1: fluorescence-based biochemical high throughput dose response assay to identify inhibitors of Protein Phosphatase 5 (PP5). [Related pubchem assays: 2034 (Summary (PP5 inhibitors)), 1987 (PP5 inhibitors in singlate), 2235 (PP1 inhibitors in singlate)]
[15] = target: T2, Eukaryotic translation initiation factor 2-alpha kinase 3 (Homo sapiens, UniProt Q9NZJ5); assay: Counterscreen assay for PERK inhibitors: Dose response cell-based high throughput screening assay to measure inhibition of PERK at 6 hours. [Related pubchem assays: 1522, 1416 ]; assay type: functional
[16] = target: T2, Eukaryotic translation initiation factor 2-alpha kinase 3; assay: Dose response cell-based high-throughput screening assay to measure PERK inhibition. [Related pubchem assays: 1416 ]; assay type: functional
[17] = antiviral protection against BTV-induced cell death – arbovirus, BSR cells, confirmation (AID 1250); assay type: functional;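 further: protection from viral cytopathic effect measured as cell viability by ATP luminescence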
[18] = target: T3, Probable nicotinate-nucleotide adenylyltransferase (Staphylococcus aureus (strain N315), UniProt P65502); assay type: functional, Staphylococcus aureus subsp. aureus N315; conditions: read-out: IC50_Mean;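 on IC50 Mean: confirmatory dose-response retesting of NadD inhibitor hits first found in an ultra-high-throughput screen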
[19] = target: T3, Probable nicotinate-nucleotide adenylyltransferase; assay type: functional, Staphylococcus aureus subsp. aureus N315
Phospholipase A2 = Phospholipase A2 (Homo sapiens, UniProt P04054); assay type: functional;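 further: confirmatory dose-response counterscreen on phospholipase A2, testing hits that came from an ultra-high-throughput screen for ATG4B inhibitors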
Cysteine protease ATG4B = target: T4, Cysteine protease ATG4B (Homo sapiens, UniProt Q9Y4P1); assay type: functional;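 further: Fluorescence-based dose-response confirmation assay measuring inhibition of ATG4B activity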
T4 sequence (Q9Y4P1 whole entry): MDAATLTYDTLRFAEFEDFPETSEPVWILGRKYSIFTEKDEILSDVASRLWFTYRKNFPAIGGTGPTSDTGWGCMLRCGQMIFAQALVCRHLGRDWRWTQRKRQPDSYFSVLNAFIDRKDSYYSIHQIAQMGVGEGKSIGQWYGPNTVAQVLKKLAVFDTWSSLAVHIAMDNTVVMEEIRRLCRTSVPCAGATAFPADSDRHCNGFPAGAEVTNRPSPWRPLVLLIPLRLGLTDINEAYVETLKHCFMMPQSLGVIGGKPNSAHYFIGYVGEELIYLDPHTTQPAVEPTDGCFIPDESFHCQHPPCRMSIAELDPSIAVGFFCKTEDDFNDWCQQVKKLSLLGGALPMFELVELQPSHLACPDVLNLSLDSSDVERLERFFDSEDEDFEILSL

Cytochrome P450 2D6 = Cytochrome P450 2D6 (Homo sapiens, UniProt P10635); assay: qHTS Assay for Inhibitors and Substrates of Cytochrome P450 2D6. [Related pubchem assays: 410 ]; assay type: ADME; conditions: read-out: Potency
Sequence of Cytochrome P450 2D6 (P10635 whole entry): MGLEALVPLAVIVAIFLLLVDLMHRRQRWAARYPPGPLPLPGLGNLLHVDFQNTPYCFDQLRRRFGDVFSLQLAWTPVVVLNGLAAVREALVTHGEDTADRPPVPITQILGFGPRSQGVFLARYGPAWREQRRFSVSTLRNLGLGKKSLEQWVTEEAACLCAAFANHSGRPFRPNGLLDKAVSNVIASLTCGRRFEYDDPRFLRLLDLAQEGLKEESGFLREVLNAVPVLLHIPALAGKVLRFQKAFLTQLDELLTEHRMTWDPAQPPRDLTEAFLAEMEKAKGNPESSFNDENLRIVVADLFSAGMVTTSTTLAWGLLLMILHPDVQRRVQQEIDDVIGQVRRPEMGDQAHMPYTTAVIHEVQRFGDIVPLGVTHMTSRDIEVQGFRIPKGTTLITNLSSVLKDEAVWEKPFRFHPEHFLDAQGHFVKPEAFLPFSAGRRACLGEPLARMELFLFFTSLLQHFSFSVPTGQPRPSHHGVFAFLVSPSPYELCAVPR

T2 sequence (Q9NZJ5 whole entry): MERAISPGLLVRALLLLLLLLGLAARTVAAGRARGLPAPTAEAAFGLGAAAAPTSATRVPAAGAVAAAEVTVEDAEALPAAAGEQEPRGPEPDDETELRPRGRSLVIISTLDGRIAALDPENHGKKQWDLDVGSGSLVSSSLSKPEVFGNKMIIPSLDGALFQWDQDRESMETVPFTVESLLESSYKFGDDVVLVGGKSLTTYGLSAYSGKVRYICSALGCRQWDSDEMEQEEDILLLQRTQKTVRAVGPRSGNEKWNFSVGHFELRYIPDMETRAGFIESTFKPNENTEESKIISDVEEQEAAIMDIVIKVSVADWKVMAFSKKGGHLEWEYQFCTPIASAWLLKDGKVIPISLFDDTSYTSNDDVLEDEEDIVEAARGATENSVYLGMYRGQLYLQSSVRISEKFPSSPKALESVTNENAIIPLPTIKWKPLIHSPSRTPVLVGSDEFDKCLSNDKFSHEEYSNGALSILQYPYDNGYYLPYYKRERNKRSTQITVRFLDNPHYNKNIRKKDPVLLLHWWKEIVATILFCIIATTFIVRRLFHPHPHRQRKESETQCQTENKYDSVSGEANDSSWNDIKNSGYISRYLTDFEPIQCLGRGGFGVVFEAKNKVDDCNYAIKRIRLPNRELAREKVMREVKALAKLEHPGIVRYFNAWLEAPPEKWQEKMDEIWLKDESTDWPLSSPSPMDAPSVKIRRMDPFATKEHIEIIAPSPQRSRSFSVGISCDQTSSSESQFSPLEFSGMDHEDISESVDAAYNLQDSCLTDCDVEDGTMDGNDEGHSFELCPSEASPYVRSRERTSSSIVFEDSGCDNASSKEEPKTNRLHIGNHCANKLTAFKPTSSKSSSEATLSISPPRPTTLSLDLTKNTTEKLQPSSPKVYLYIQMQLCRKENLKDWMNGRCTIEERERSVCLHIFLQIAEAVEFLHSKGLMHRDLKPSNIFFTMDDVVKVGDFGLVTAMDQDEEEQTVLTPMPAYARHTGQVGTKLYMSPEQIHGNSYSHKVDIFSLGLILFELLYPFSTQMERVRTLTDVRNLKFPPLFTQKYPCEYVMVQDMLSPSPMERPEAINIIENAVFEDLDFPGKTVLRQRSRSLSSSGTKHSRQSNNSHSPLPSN
T3 sequence (P65502 whole entry): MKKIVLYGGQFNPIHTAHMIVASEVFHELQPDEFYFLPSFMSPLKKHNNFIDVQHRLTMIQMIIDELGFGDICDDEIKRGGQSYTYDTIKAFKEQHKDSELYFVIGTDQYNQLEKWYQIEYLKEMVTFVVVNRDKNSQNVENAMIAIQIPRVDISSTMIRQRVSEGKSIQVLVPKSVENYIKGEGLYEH
Sequence of Phospholipase A2 (P04054 whole entry): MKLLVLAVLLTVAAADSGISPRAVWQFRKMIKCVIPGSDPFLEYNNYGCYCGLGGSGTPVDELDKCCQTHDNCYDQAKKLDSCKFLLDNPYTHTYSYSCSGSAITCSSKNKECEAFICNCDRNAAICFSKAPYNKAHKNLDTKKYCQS
Sequence of Mothers against decapentaplegic homolog 3 (P84022 whole entry): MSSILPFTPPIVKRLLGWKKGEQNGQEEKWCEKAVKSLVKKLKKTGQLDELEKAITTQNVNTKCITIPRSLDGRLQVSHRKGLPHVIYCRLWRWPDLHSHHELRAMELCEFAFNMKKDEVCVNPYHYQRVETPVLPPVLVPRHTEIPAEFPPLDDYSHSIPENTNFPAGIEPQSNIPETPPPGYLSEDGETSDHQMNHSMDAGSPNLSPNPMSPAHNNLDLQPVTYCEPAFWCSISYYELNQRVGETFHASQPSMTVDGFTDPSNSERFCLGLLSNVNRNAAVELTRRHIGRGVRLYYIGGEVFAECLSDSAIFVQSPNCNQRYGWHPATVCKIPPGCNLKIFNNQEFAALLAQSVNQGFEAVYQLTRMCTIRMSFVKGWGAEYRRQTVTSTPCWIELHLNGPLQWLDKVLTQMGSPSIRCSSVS
Sequence of Nonstructural protein 1 (Q194T2 whole entry): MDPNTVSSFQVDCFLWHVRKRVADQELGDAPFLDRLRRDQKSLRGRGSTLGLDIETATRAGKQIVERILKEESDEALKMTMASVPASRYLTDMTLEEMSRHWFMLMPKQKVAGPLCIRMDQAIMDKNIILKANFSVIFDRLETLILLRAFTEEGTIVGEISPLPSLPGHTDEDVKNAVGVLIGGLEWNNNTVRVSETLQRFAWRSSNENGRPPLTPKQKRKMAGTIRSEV
Sequence of Serine/threonine-protein phosphatase PP1-alpha catalytic subunit (P62136 whole entry): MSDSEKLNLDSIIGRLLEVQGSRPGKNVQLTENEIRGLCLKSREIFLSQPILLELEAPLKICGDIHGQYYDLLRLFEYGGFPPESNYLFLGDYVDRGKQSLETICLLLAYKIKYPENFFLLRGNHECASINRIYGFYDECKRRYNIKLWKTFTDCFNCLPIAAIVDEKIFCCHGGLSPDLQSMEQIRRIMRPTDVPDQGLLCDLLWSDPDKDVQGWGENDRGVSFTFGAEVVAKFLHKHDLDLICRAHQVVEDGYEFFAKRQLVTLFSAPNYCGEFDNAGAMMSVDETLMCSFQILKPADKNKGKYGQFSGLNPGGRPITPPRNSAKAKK
Sequence of Serine/threonine-protein phosphatase (Q9BPW0 whole entry): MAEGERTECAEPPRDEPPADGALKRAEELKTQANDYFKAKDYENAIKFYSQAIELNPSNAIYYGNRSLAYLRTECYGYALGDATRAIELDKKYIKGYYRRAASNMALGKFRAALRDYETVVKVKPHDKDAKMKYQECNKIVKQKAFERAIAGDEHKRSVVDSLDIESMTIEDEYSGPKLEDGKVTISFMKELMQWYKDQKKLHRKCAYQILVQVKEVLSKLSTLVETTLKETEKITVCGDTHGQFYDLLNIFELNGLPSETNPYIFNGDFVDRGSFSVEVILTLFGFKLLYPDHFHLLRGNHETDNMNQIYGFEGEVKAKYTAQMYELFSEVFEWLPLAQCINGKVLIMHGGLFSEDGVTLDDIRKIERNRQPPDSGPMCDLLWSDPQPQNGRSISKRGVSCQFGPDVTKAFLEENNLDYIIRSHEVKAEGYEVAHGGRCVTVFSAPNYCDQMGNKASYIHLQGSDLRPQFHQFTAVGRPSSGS
Sequence of Photoreceptor-specific nuclear receptor (Q9Y5X4 whole entry): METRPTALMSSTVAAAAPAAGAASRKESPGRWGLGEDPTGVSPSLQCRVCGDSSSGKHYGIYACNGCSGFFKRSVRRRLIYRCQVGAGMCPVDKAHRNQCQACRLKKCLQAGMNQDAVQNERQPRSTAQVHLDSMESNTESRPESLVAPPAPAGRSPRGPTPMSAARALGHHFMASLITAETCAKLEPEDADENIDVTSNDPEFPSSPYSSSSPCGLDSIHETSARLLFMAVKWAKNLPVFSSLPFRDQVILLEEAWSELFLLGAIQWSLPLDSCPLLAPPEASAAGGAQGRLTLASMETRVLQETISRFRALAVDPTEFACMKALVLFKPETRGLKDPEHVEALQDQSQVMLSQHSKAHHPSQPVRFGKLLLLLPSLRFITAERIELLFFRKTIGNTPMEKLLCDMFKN

With `C[C@@H]1NC(=O)N[C@@H]1CCCCCC(=O)O` the EC50 (Insulin-degrading enzyme [1]) was 7.8 µM (active), the IC50 [2] was 0.149 µM (active) and the EC50 (Insulin-degrading enzyme [3]) was 7.41 µM (active). For the same compound, the IC50 [4] was 1.38 µM (active), the IC50 (HEK293 [5]) was > 89.2 µM (inactive) and the IC50 [6] was 0.0101 µM (active). The IC50 (Nonstructural protein 1) was 1.57 µM (active) and the EC50 (HEK293 [7]) was 11.9 µM (inactive).

In the case of `Oc1cc2c(cc1C(c1ccc(F)cc1)N1CCCC1)OCO2` (stereo not given), the IC50 [8] is reported as 23.3 µM (not active).

With `c1ccc(N2CCN(c3nc(-c4ccccn4)nc4ccccc34)CC2)cc1` the IC50 [9] was 6.28 µM (active), the AC50 (INS1) was 3.01 µM (active) and the IC50 [10] was 2.4 µM (active). For the same compound, the EC50 [11] was 0.433 µM (active), the IC50 [12] was 3.59 µM (active) and the IC50 [13] was 1.67 µM (active). The EC50 (Streptococcus) was 8.15 µM (active) and the IC50 [14] was > 22.3 µM (not active).

With `O=C(O)CSc1ncnc2scc(-c3ccc(Br)cc3)c12` the EC50 [15] was > 55.7 µM (not active) and the EC50 [16] was > 55.7 µM (not active).

With `CCc1nnc(NS(=O)(=O)c2ccc(N/C=C\C(=O)c3ccc4ccccc4c3)cc2)s1` the IC50 [17] was 62.9 µM (active), the IC50 [18] was 29.7 µM (active) and the IC50 [19] was 5.19 µM (active). The IC50 (Phospholipase A2) was 9.13 µM (active) and the IC50 (Cysteine protease ATG4B) was 11.1 µM (active).

In the case of `CCN1C(C)=C(C(=O)OC)C(c2ccccc2)N2C(=O)[C@](O)(C(=O)OC)C(c3ccccc3)C(C(=O)c3ccccc3)=C12` (stereo not given in full), the AC50 (Cytochrome P450 2D6) is reported as 3.16 µM (inconclusive).
